Where two headings read alike, the source gives them in different places.
How the values were obtained:
5-lipoxygenase = biological target: T1, 5-lipoxygenase (Rattus norvegicus, UniProt P12527); test: Dosage of 5-lipoxygenase of rat neutrophiles (Leucotriene B4 by radioimmunoassay); assay type: cell-based; settings: rat peritoneal neutrophiles, 10 μM ionophore A 23187, Leucotriene B4; read-out: CI50 5-lipoxygenase
T1 construct: Dosage of 5-lipoxygenase of rat neutrophiles; endogenous in cells; host or cells: rat peritoneal neutrophils elicited with sodium caseinate
T1 sequence (P12527 1-673): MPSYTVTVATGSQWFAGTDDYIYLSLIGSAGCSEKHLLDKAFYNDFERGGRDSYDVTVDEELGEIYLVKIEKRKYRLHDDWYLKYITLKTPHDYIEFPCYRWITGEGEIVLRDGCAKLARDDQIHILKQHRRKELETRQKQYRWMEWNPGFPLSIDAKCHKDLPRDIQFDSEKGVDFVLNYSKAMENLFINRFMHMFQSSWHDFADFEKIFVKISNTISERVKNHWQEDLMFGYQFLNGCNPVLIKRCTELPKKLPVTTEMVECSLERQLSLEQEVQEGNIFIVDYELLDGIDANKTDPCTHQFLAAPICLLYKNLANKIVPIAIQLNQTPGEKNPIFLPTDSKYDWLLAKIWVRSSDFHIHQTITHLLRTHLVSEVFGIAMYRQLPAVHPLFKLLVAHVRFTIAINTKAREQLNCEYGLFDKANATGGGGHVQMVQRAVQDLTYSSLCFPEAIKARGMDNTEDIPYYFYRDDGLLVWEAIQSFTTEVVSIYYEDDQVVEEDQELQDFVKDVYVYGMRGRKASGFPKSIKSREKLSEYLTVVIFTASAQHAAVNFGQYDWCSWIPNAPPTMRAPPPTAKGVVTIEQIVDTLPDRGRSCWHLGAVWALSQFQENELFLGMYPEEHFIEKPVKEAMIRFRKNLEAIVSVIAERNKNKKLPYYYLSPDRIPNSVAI
Protocol: 3. Dosage of 5-lipoxygenase of rat neutrophiles
Peritoneal neutrophile (5×10^6 cells/ml) obtained after intraperitoneal injection of 12% sodium caseinate were preincubated at 37° C. for 5 minutes in the presence of the test product or solvent used. The incubation was effected under the same conditions in the presence of 10 μM of ionophore A 23187 and […] of calcium chloride. After 5 minutes, the incubates were placed in ice and centrifuged at 3000 g.

[1] = tested on: adjuvant arthritis (rear paw volume increase); test: Anti-inflammatory activity, adjuvant arthritis (preventive treatment); assay type: in vivo; settings: Rattus norvegicus; male rats, oral, day 0 to day 17, Freund type adjuvant; read-out: DA50 (dose that diminished by 50% the volume increase of the rear paws)
Protocol: A. Anti-inflammatory Activity-adjuvant arthritis (preventive treatment)
The injection of Freund type adjuvant into the rear paw of a rat provokes the rapid appearance of a primary inflammatory lesion in that paw and then after a latent period of 13 to 15 days, the appearance of a secondary arthritic condition occurs in the other rear paw The test was performed on male rats about 40 to 50 days old who received an intraplantary injection of 0.1 ml of Freund type adjuvant (suspension of 6 mg per ml of dead mycobacterium butyrium in vaseline oil). The rats received the test compound orally on day 0 (day of injection of adjuvant) until the day before they were killed (day 17). […] The activity of the test compounds was determined by the increase in the injected rear paw volume (primary and secondary inflammation) and the non-injected rear paw (secondary inflammation) as compared to the average volume of the corresponding paws of the arthritic control animals. The DA50 or the dose that diminished by 50% the volume increase of the rear paws of the treated animals as compared to the control animals was determined to be 8 mg/kg for the compound of Example 1.

cyclo-oxygenase = biological target: T2, cyclo-oxygenase (Bos taurus, UniProt O62664); test: Inhibition of biosynthesis of prostaglandins in vitro (microsomal preparation of seminal vesicules); assay type: biochemical, bulls
T2 construct: a cyclo-oxygenase contained in a microsomal preparation of seminal vesicules of bulls; from tissue; host or cells: bull seminal vesicles, microsomal preparation
T2 sequence (O62664 25-600): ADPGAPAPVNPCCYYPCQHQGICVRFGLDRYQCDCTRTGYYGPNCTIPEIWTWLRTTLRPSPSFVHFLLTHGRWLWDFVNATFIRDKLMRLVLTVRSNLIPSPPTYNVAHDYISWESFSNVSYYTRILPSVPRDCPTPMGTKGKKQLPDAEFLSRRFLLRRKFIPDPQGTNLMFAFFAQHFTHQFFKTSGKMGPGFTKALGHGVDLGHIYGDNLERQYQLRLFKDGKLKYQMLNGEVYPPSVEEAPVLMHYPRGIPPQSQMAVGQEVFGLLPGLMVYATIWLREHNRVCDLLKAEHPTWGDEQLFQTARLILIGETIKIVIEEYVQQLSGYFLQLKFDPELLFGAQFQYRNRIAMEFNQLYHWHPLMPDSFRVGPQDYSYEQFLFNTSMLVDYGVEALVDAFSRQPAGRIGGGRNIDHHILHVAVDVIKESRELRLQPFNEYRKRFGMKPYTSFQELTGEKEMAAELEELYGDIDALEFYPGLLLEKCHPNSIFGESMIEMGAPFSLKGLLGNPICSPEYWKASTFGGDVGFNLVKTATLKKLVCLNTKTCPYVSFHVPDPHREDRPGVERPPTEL
Protocol: B. Inhibition of biosynthesis of prostaglandins in vitro
Arachidonic acid is converted into prostaglandins (PGs) of the […] by a cyclo-oxygenase contained in a microsomal preparation of seminal vesicules of bulls by the method of Tagekuchi et al [Biochemistry, Vol. 10 (1971), P. 2372]. The precursor at a concentration of 15×10^-6 M was incubated in the presence of a fixed concentration of proteins of the seminal vesicule preparation and the test product at 37° C. for 30 minutes. The reaction was stopped by immersion into boiling water for one minute and then centrifugation. The prostaglandins were determined by radio-immunoassay by the procedure of Dray et al [European J. Clin. Invest., Vol. 5 (1975), p. 311] to specifically evaluate for PGE2 and PGF2 α. The CI50 dose or dose that inhibited the activity by 50% was calculated for each of the two prostaglandins and was 2×10^-5 M for the compound of Example 1.

## CC(C(=O)O)c1cc2c(s1)C1(CCCCC1)CC2 (stereo not drawn) [Example 1, 4',5'-dihydro-α'-methyl-spiro[cyclohexane-1,6']-6H-[cyclopenta (b)thiophene]-2'-acetic acid]
5-lipoxygenase
  IC50: 10 µM
[1]
  ED50: 8 mg/kg
cyclo-oxygenase; arachidonic acid 15×10^-6 M, 37° C., 30 minutes, PGE2 and PGF2 α by radio-immunoassay, read-out: CI50 (dose that inhibited the activity by 50%), for each of PGE2 and PGF2 α
  IC50: 20 µM

## CC(C(=O)N(C)O)c1cc2c(s1)C1(CCCCC1)CC2 (stereo not drawn) [Example 4, 4',5'-dihydro-α',N-dimethyl-N-hydroxy-spiro[cyclohexane-1,6']-6H-[cyclopenta (b)thiophene]-2-acetamide]
5-lipoxygenase
  IC50: 0.5 µM
cyclo-oxygenase; table value, read-out: CI50 cyclooxygenase
  IC50: 200 µM
